The values that follow come from ChEMBL document CHEMBL1201862, “PubChem BioAssay data set” (2004).

Some test systems named below: 786-0; A498; CAKI-1; CCRF-CEM; COLO 205; EKVX; Hs-578T; M14; MCF7; MOLT-4; NCI-H226; NCI-H522; NCI/ADR-RES; OVCAR-8; RXF 393; SK-MEL-28; SK-MEL-2; U-251; Malme-3M.
Test in all cases: DTP human tumour cell line panel, 48 h

Structures are written as SMILES.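 Cells were grown in 96-well plates and exposed to each compound for 48 hours at five concentrations; endpoints were interpolated linearly between bracketing concentrations, or set to the highest concentration if not reached. At the GI50, growth is halved.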 The source made the active and inactive calls. Cut-off read from the data, not from the text of the source: active = GI50 up to about 1.1 µM and inactive = higher.

One may read the GI50 as the concentration that inhibits growth by half. Turning to `Cc1cc(=O)[nH]c2cc(NC(=O)C(C)NC(=O)C(C)NC(=O)C(C)NC(=O)OC(C)(C)C)ccc12` (configuration not stated), the GI50 with 786-0, in the assay on A498, in the assay with CAKI-1, with CCRF-CEM, with COLO 205 and in the assay on EKVX was > 15 µM (inactive) throughout. Also, the GI50 in the assay with Hs-578T, in the assay with M14, in the assay with MCF7, in the assay on MOLT-4, in the assay on NCI-H226 and in the assay with NCI-H522 was > 15 µM (inactive) each time. Moreover, the GI50 in the assay on NCI/ADR-RES, with OVCAR-8, in the assay with RXF 393, with SK-MEL-28, in the assay on SK-MEL-2 and in the assay with U-251 was > 15 µM (inactive) in each case.

Take `COc1cc2c3cc1Oc1cc(ccc1O)C[C@@H]1c4c(cc(OC)c(O)c4Oc4ccc(cc4)C[C@@H]3N(C)CC2)CC[N+]1(C)C`: the GI50 is 55.3 µM (inactive) in the assay with 786-0; 81.7 µM (inactive) with A498; > 100 µM (inactive) in the assay with CAKI-1; 77.1 µM (inactive) in the assay on COLO 205; > 100 µM (inactive) in the assay on EKVX; 13.5 µM (inactive) with Hs-578T. Further, the GI50 in the assay with M14 was 16.8 µM (inactive); in the assay on MCF7, 22.4 µM (inactive); with MOLT-4 it was 61.8 µM (inactive); with Malme-3M it was 17.8 µM (inactive); with NCI-H226, > 100 µM (inactive); with NCI-H522, 24.9 µM (inactive). Moreover, the GI50 is > 100 µM (inactive) in the assay on NCI/ADR-RES; 58.7 µM (inactive) in the assay on OVCAR-8; 13.6 µM (inactive) in the assay with RXF 393; > 100 µM (inactive) with SK-MEL-28; 90.2 µM (inactive) with SK-MEL-2; 28.9 µM (inactive) in the assay with U-251.

Consider `Nc1c2c(nc3ccccc13)CCCc1ccccc1-2`, for which the GI50 with 786-0 was 11.3 µM (inactive); in the assay with A498, 8.43 µM (inactive); in the assay with CAKI-1, 15.9 µM (inactive); with COLO 205, 8.32 µM (inactive); with EKVX, 13.2 µM (inactive); in the assay on Hs-578T it was 22.6 µM (inactive). Moreover, the GI50 in the assay on M14 is 7.91 µM (inactive); with MCF7, 13.1 µM (inactive); in the assay with MOLT-4, 16.6 µM (inactive); with Malme-3M, 18.5 µM (inactive); in the assay with NCI-H226, 15.9 µM (inactive); in the assay with NCI-H522, 17.3 µM (inactive). The GI50 in the assay on NCI/ADR-RES is 20.3 µM (inactive); with OVCAR-8, 14.1 µM (inactive); in the assay with RXF 393 it was 11.4 µM (inactive); in the assay with SK-MEL-28 it was 9.75 µM (inactive); with SK-MEL-2 it was 13.4 µM (inactive); in the assay on U-251, 11.3 µM (inactive).

Take `O=C1CCC(CCc2nc3ccccc3[nH]2)(c2ccccc2)C(=O)N1` (configuration not stated): the GI50 in the assay with 786-0 was > 100 µM (inactive); with A498, > 100 µM (inactive); in the assay with CAKI-1, > 100 µM (inactive); in the assay on CCRF-CEM it was > 100 µM (inactive); in the assay with COLO 205 it was > 100 µM (inactive); with EKVX, 62.4 µM (inactive). In addition, the GI50 in the assay on Hs-578T is 29.7 µM (inactive); in the assay on M14, > 100 µM (inactive); in the assay with MCF7, > 100 µM (inactive); in the assay with Malme-3M it was > 100 µM (inactive); in the assay with NCI-H226 it was > 100 µM (inactive); in the assay with NCI-H522 it was 47.4 µM (inactive). Moreover, the GI50 with NCI/ADR-RES, with OVCAR-8, in the assay with RXF 393, in the assay on SK-MEL-28, in the assay on SK-MEL-2 and in the assay on U-251 was > 100 µM (inactive) in each case.

Regarding `CCOP(=O)(OCC)/C(C#N)=C/c1ccnc2ccccc12`, the GI50 with 786-0 was 20.4 µM (inactive); in the assay with A498, 78.3 µM (inactive); with CAKI-1, 24 µM (inactive); in the assay on COLO 205, 18.1 µM (inactive); in the assay on EKVX, 53.3 µM (inactive); with Hs-578T, 23.7 µM (inactive). Further, the GI50 in the assay with M14 is 20.1 µM (inactive); in the assay with MCF7, 18.8 µM (inactive); in the assay with MOLT-4, > 100 µM (inactive); in the assay on Malme-3M, 14 µM (inactive); in the assay on NCI-H226, 24.8 µM (inactive); in the assay on NCI-H522 it was 21.2 µM (inactive). The GI50 was 20.5 µM (inactive) with NCI/ADR-RES; 15 µM (inactive) in the assay on OVCAR-8; 23.2 µM (inactive) with RXF 393; 34.6 µM (inactive) in the assay with SK-MEL-28; 25 µM (inactive) with SK-MEL-2; 51.8 µM (inactive) with U-251.

As for `O=CNC(Cc1c[nH]cn1)C(=O)O` (configuration not stated), the GI50 with 786-0, with A498, in the assay with CAKI-1, in the assay on CCRF-CEM, in the assay on COLO 205 and with EKVX was > 100 µM (inactive) in each case. Besides, the GI50 in the assay with Hs-578T, in the assay on M14, in the assay on MCF7, in the assay on Malme-3M, with NCI-H226 and in the assay on NCI-H522 was > 100 µM (inactive) throughout. Moreover, the GI50 in the assay on NCI/ADR-RES, in the assay on OVCAR-8, with RXF 393, in the assay with SK-MEL-28, in the assay with SK-MEL-2 and in the assay with U-251 was > 100 µM (inactive) throughout.

For the compound `CCC1NC(=O)C(NC(=O)c2ncccc2O)C(C)OC(=O)C(c2ccccc2)NC(=O)C2CC(=O)CCN2C(=O)C(Cc2ccccc2)N(C)C(=O)C2CCCN2C1=O` (configuration not stated), the GI50 in the assay with 786-0 was > 100 µM (inactive); with A498, > 100 µM (inactive); in the assay with CAKI-1, > 100 µM (inactive); in the assay on CCRF-CEM, 41.5 µM (inactive); with COLO 205, > 100 µM (inactive); in the assay with Hs-578T, > 100 µM (inactive). The GI50 in the assay with M14, with MCF7, in the assay on Malme-3M, in the assay on NCI-H226, with NCI-H522 and in the assay with NCI/ADR-RES was > 100 µM (inactive) each time. In addition, the GI50 with OVCAR-8, in the assay with RXF 393, in the assay with SK-MEL-28, in the assay with SK-MEL-2 and with U-251 was > 100 µM (inactive) throughout.

As to `N=C1OC(c2c[nH]c3ccc(OCc4ccccc4)cc23)C(O)=C1O` (configuration not stated), the GI50 in the assay on 786-0 was > 100 µM (inactive); with A498 it was 59.2 µM (inactive); in the assay with CAKI-1, > 100 µM (inactive); in the assay with COLO 205, > 100 µM (inactive); in the assay with EKVX, > 100 µM (inactive); in the assay with Hs-578T, > 100 µM (inactive). The GI50 with M14, in the assay with MCF7, in the assay with MOLT-4, in the assay with Malme-3M, with NCI-H226 and with NCI-H522 was > 100 µM (inactive) in each case. The GI50 in the assay on NCI/ADR-RES, in the assay on OVCAR-8, in the assay on RXF 393, in the assay with SK-MEL-28, with SK-MEL-2 and in the assay with U-251 was > 100 µM (inactive) throughout.

Consider `CN(NC(=O)/C(=C/C=C/c1ccccc1)NC(=O)c1ccccc1)C1=C(Cl)C(=O)[N+](c2ccccc2)=CC1`, for which the GI50 was 19.4 µM (inactive) in the assay with 786-0; 39.4 µM (inactive) with A498; 35.4 µM (inactive) with CAKI-1; 17.5 µM (inactive) in the assay with COLO 205; 35.8 µM (inactive) in the assay on EKVX; 42.7 µM (inactive) with Hs-578T. For the same compound, the GI50 is 18.1 µM (inactive) in the assay with M14; 16.7 µM (inactive) in the assay with MCF7; 24.3 µM (inactive) in the assay with MOLT-4; 37.9 µM (inactive) in the assay with Malme-3M; 17.9 µM (inactive) in the assay on NCI-H226; 23.3 µM (inactive) in the assay with NCI-H522. For the same compound, the GI50 with NCI/ADR-RES is 20.7 µM (inactive); in the assay with OVCAR-8, 21.1 µM (inactive); in the assay with RXF 393 it was 20.1 µM (inactive); in the assay with SK-MEL-28, 16.9 µM (inactive); with SK-MEL-2, 26.2 µM (inactive); in the assay with U-251 it was 19.8 µM (inactive).

On to `CCOC(=O)CC(=O)Nc1cccc2nc[nH]c12`, for which the GI50 in the assay on 786-0, with A498, with CAKI-1, with CCRF-CEM, in the assay on COLO 205 and with EKVX was > 100 µM (inactive) in each case. Moreover, the GI50 with Hs-578T was 0.267 µM (active); in the assay with M14, > 100 µM (inactive); in the assay with MCF7, > 100 µM (inactive); in the assay on MOLT-4 it was > 100 µM (inactive); in the assay with Malme-3M, > 100 µM (inactive); in the assay on NCI-H226, > 100 µM (inactive). Besides, the GI50 in the assay on NCI/ADR-RES, with OVCAR-8, in the assay on RXF 393, in the assay with SK-MEL-28, with SK-MEL-2 and in the assay with U-251 was > 100 µM (inactive) each time.

Turning to `CSc1cc(Cl)c(C)cc1S(=O)(=O)NC(=O)NNc1ccc(F)cc1`, the GI50 in the assay with 786-0, in the assay on A498, with CAKI-1, in the assay on COLO 205, in the assay on EKVX and in the assay with Hs-578T was > 100 µM (inactive) throughout. Further, the GI50 in the assay on M14, in the assay on MCF7, in the assay with MOLT-4, in the assay with Malme-3M, with NCI-H226 and in the assay with NCI-H522 was > 100 µM (inactive) in each case. Moreover, the GI50 in the assay on NCI/ADR-RES, in the assay on OVCAR-8, in the assay with RXF 393, in the assay with SK-MEL-28, in the assay with SK-MEL-2 and with U-251 was > 100 µM (inactive) throughout.
